# Experimental data: patent publication EP0702551B1, “COMPOSITIONS AND METHODS FOR REPARATION AND PREVENTION OF FIBROTIC LESIONS” (MARGOLIN, Solomon B., priority 1993, dated 1994)
# Several values for one entry are separate records, joined by “and”; a condition that tells them apart may be missing. Equal entries are not always repeated. Marks after values point to notes of the source that are not given here.
# Key:
# [1] = Acute toxicity (LD), cat; conditions: in vivo
# Description: The acute toxicity of the ingredient in the medical composition of the present invention which exerts the anti-fibrotic activity is as shown in the table below: […]
# [2] = test system: fibrosis (interstitial hyperplasia); experiment: Histopathological examination of rat lungs for fibrosis after three months of drug in the diet; format: in vivo; conditions: rats; for Lung Connective Tissue Score, Mean: 300 mg/kg (p.o.) in the diet for three months, score 0, 1, 2, 3 = degree of fibrosis, control mean 1.63, 300 mg/kg
# Description: The results of a histopathological examination of the lungs of rats for fibrosis (interstitial hyperplasia) after receiving 300mg/kg body weight of pirfenidone in the diet for three months are summarized in Table 2. The individual microscopic readings of the lung are also shown in Table 2, where a score schedule of 0, 1, 2, and 3 reflects the degree of fibrosis.
# The data in Table 2 reveal a statistically significant reduction in the amount of fibrosis in rats receiving pirfenidone as compared to placebo control rats (Group 1). The mean score for the controls (Group 1) was 1.63 +/-0.23, and for Group IV (pirfenidone, 300mg/kg body weight daily was 0.95 +/-0.23.
# Student's T value was 2.43, with P less than 0.02 (highly significant statistically).
# [3] = test system: PULMONARY INTERSTITIAL HYPERPLASIA (FIBROSIS); experiment: Pulmonary interstitial hyperplasia (fibrosis) in dogs, oral capsules, microscopic scoring; format: in vivo, Beagle dogs; conditions: for Hyperplasia Scores 0 (number of dogs): 0 = normal tissue; for Hyperplasia Scores 1 (number of dogs): 1 = minimal; for Hyperplasia Scores 2 (number of dogs): 2 = moderate; for Hyperplasia Scores 3 (number of dogs): 3 = severe; for Incidence of Normal Lung: control 0/9
# Description: The mean score for Group I (Control) was 2.11 +/-0.31, and for Group IV, which received pirfenidone, 150 mg/kg per day orally in capsules, was 0.22 +/-0.19.
# [4] = test system: ASBESTOS-INDUCED PULMONARY IN[…]; experiment: Asbestos-induced pulmonary interstitial fibrosis in hamsters; format: in vivo
# Description: In hamsters, pulmonary fibrosis induced with crysotile asbestos was removed following oral pirfenidone (Table 4).
# The novel role of pirfenidone in the therapeutic repair of fibrotic lung tissue featuring removal of fibrotic lesions, and concomitant regeneration of normal lung tissue has been observed in experimental asbestosis by histopathological examination of lung tissue specimens under the light microscope, and electron microscopy (Table 4).
# This was subsequently confirmed by ashing of lung specimens in a laboratory oven, and then determining the asbestos content.
# [5] = test system: CYCLOPHOSPHAMIDE-INDUCED IN[…]; experiment: Cyclophosphamide-induced interstitial fibrosis in mice; format: in vivo
# Description: In mice, pulmonary fibrosis induced with cyclophosphamide […] and is know to produce pulmonary fibrosis in patients as a side effect.
# [6] = test system: Pulmonary fibrosis; experiment: Clinical human open trial, pulmonary fibrosis; format: in vivo
# Description: (§1) Clinical human open trials have been undertaken as follows: • 1. Pulmonary fibrosis diagnosed as caused by asbestos was treated with pirfenidone and closely and objectively followed in two subjects. […] Pulmonary fibrosis diagnosed as idiopathic in nature was treated with pirfenidone and closely and objectively followed in one subject for over two years. […] Two subjects suffered from frequency, severe nocturia, incontinence, constant urgency, and in the third these symptoms were less severe. Clinically, all had enlarged prostates that explained the symptoms. The results were dramatic in the eldest subject within two weeks of therapy. Nocturia of 6-7 trips (every 60-90 minutes) per night was reduced to 1 or 2 nightly (4-5 hours apart). In the other two patients, nocturia 3-4 times (every 2-3 hours) was reduced to once nightly 4-5 hours after retiring. […] Inhibition of excessive scar formation by direct application of pirfenidone ointment to skin lesions in 10 cases.
# [7] = test system: Benign prostate hypertrophy; experiment: Clinical human open trial, benign prostate hypertrophy; format: in vivo
# Description: as §1
# [8] = test system: Fibrosis of the ventricular myocardium; experiment: Clinical human open trial, fibrosis of the ventricular myocardium; format: in vivo
# Description: as §1
# [9] = 300 mg/kg (p.o.), three months, 19 animals
# [10] = group average, asbestos + 500 mg/kg/day in the diet two months, asbestos only 2.75+/-0.25
# [11] = individual hamsters, asbestos + 500 mg/kg/day in the diet two months, 0 = normal tissue, 1 = minimal, 2 = moderate, 3 = severe, 500 mg/kg/day
# [12] = GROUP II: cyclophosphamide 200 mg/kg i.p. plus 500 mg/kg/day p.o.
compound,measurement,setting,value
"Cc1ccc(=O)n(-c2ccccc2)c1 [pirfenidone, 5-methyl-1-phenyl-2-(1H) pyridone]",LD50,[1]; iv,40 mg/kg
same,LD50,[1]; po,500 mg/kg
same,"Lung Connective Tissue Score, Mean",[2],0.95 +/-0.23
same,"Lung Connective Tissue Score, Mean",[2]; listed as PIRFENIDONE,0.95
same,"Lung Connective Tissue Score 0, Total (animals)",[2]; [9],5
same,"Lung Connective Tissue Score 1, Total (animals)",[2]; [9],11
same,"Lung Connective Tissue Score 2, Total (animals)",[2]; [9],2
same,"Lung Connective Tissue Score 3, Total (animals)",[2]; [9],1
same,Hyperplasia Scores 0 (number of dogs),[3]; 25 mg/kg/day oral,1
same,Hyperplasia Scores 1 (number of dogs),[3]; 25 mg/kg/day oral,1
same,Hyperplasia Scores 2 (number of dogs),[3]; 25 mg/kg/day oral,4
same,Hyperplasia Scores 3 (number of dogs),[3]; 25 mg/kg/day oral,0
same,Incidence of Normal Lung,[3]; 25 mg/kg/day oral,1/6
same,Average Scores,"[3]; 25 mg/kg/day oral, hyperplasia score 0-3, control 2.11+/-0.31",1.50+/-0.34
same,Hyperplasia Scores 0 (number of dogs),[3]; 75 mg/kg/day oral,2
same,Hyperplasia Scores 1 (number of dogs),[3]; 75 mg/kg/day oral,2
same,Hyperplasia Scores 2 (number of dogs),[3]; 75 mg/kg/day oral,3
same,Hyperplasia Scores 3 (number of dogs),[3]; 75 mg/kg/day oral,1
same,Incidence of Normal Lung,[3]; 75 mg/kg/day oral,2/8
same,Average Scores,"[3]; 75 mg/kg/day oral, hyperplasia score 0-3, control 2.11+/-0.31",1.38+/-0.38
same,Hyperplasia Scores 0 (number of dogs),[3]; 150 mg/kg/day oral,7
same,Hyperplasia Scores 1 (number of dogs),[3]; 150 mg/kg/day oral,2
same,Hyperplasia Scores 2 (number of dogs),[3]; 150 mg/kg/day oral,0
same,Hyperplasia Scores 3 (number of dogs),[3]; 150 mg/kg/day oral,0
same,Incidence of Normal Lung,[3]; 150 mg/kg/day oral,7/9
same,Average Scores,"[3]; 150 mg/kg/day orally in capsules, hyperplasia score 0-3, control 2.11+/-0.31, P<0.001, 150 mg/kg/day",0.22 +/-0.19
same,Average Scores,"[3]; 150 mg/kg/day orally in capsules, hyperplasia score 0-3, control 2.11+/-0.31, P<0.001, listed as Pirfenidone, 150 mg/kg/day",0.22+/-0.15**
same,recurrence of asbestos-induced fibrosis,[4]; after drug had been discontinued for two months,did not recur
same,lung cell-imbedded asbestos fibers,"[4]; electron microscope, confirmed by ashing of lung specimens and asbestos content",had been removed
same,"Lung Density, Average","[4]; group average, asbestos + 500 mg/kg/day in the diet two months, asbestos only 2.53+/-0.23",1.17+/-0.10
same,"Pulmonary Fibrosis Score Electron Microscope, Average",[4]; [10],0.25+/-0.25
same,"Pulmonary Fibrosis Score Light Microscope, Average",[4]; [10],1.00+/-0.41
same,pulmonary fibrosis induced with crysotile asbestos,"[4]; hamsters, oral",removed
same,Pulmonary Fibrosis Score Electron Microscope,[4]; [11],0 (3×) and 1
same,Pulmonary Fibrosis Score Light Microscope,[4]; [11],0 and 2 and 1 (2×)
same,Lung Density,"[4]; individual hamsters, asbestos by inhalation 5 days, 500 mg/kg/day orally in the diet for two months, beginning two months after exposure, 500 mg/kg/day",0.98 and 1.04 and 1.26 and 1.41
same,Lung Dry Wt.,[5]; [12],52.4+/-0.9 Mg.
same,"Lung FIBROSIS Scores (N/N), incidence of scores 3.0 or less",[5]; [12],3/5
same,Lung FIBROSIS Scores,"[5]; GROUP II: cyclophosphamide 200 mg/kg i.p. plus 500 mg/kg/day p.o., scoring 0 through 6",2.99+/-0.75
same,pulmonary fibrosis induced with cyclophosphamide,"[5]; mice, oral administration",removed
same,Clinical impressions,"[6]; pulmonary fibrosis diagnosed as caused by asbestos, two subjects",dramatic and highly favorable
same,Clinical impressions,"[6]; pulmonary fibrosis diagnosed as idiopathic, one subject followed for over two years",highly favorable
same,digital examination of the prostate,"[7]; all cases, in 3-4 weeks",detectable reduction in the size of the prostate
same,Nocturia after therapy,"[7]; other two patients, before 3-4 times (every 2-3 hours)",once
same,clinical results,[7]; three elderly subjects (66-100 years),very good to excellent
same,fibrosis of the ventricular myocardium (electrocardiogram maps and nuclear resonance determinations),"[8]; one subject (diagnosed as terminal), after repeated coronary infarcts",objective evidence of the reduction of the fibrosis
same,survival of the subject,"[8]; one subject diagnosed as terminal, drug terminated after 18 months",additional three years
